Source: PubChem BioAssay (NCI)
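96-well plates; 48 h exposure; 5 concentrations. Endpoints by linear interpolation between flanking doses. Not reached: highest tested concentration assigned. TGI marks complete inhibition of growth.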 Where a SMILES comes first, the peptide text is derived from it. The star is where a group is joined. Boc = CC(C)(C)OC(=O)*

Experiments:
Assay in all cases: NCI tumour cell line growth inhibition, 48 h
COLO 205 colon = tested on: COLO 205 colon
XF 498 CNS = tested on: XF 498 CNS
RPMI-8226 leukemia = tested on: RPMI-8226 leukemia
DMS 273 small cell lung = tested on: DMS 273 small cell lung
CCRF-CEM leukemia = tested on: CCRF-CEM leukemia
HOP-18 NSCLC = tested on: HOP-18 NSCLC
A549 NSCLC = tested on: A549 NSCLC
DMS 114 small cell lung = tested on: DMS 114 small cell lung
NCI-H522 lung = tested on: NCI-H522 lung
SR leukemia = tested on: SR leukemia
HCT-15 colon = tested on: HCT-15 colon
UACC-62 melanoma = tested on: UACC-62 melanoma
SNB-78 CNS = tested on: SNB-78 CNS
SK-OV-3 ovarian = tested on: SK-OV-3 ovarian
HCT-116 colon = tested on: HCT-116 colon
SK-MEL-5 melanoma = tested on: SK-MEL-5 melanoma
U251 CNS = tested on: U251 CNS
HOP-62 NSCLC = tested on: HOP-62 NSCLC
OVCAR-8 ovarian = tested on: OVCAR-8 ovarian
786-0 renal = tested on: 786-0 renal
MALME-3M melanoma = tested on: MALME-3M melanoma
OVCAR-3 ovarian = tested on: OVCAR-3 ovarian
NCI-H460 lung = tested on: NCI-H460 lung
KM12 colon = tested on: KM12 colon
SNB-75 CNS = tested on: SNB-75 CNS
RXF 393 renal = tested on: RXF 393 renal
M19-MEL melanoma = tested on: M19-MEL melanoma
HL-60(TB) leukemia = tested on: HL-60(TB) leukemia
SW-620 colon = tested on: SW-620 colon
K-562 leukemia = tested on: K-562 leukemia
NCI-H226 lung = tested on: NCI-H226 lung
HCC-2998 colon = tested on: HCC-2998 colon
LOX IMVI melanoma = tested on: LOX IMVI melanoma
DLD-1 colon = tested on: DLD-1 colon
KM20L2 colon = tested on: KM20L2 colon
SF-539 CNS = tested on: SF-539 CNS
MOLT-4 leukemia = tested on: MOLT-4 leukemia
HT29 colon = tested on: HT29 colon
ACHN renal = tested on: ACHN renal
IGROV1 ovarian = tested on: IGROV1 ovarian
A498 renal = tested on: A498 renal
HOP-92 NSCLC = tested on: HOP-92 NSCLC
CAKI-1 renal = tested on: CAKI-1 renal
OVCAR-4 ovarian = tested on: OVCAR-4 ovarian
SF-295 CNS = tested on: SF-295 CNS
EKVX NSCLC = tested on: EKVX NSCLC
LXFL 529 NSCLC = tested on: LXFL 529 NSCLC
SK-MEL-28 melanoma = tested on: SK-MEL-28 melanoma
SF-268 CNS = tested on: SF-268 CNS
TK-10 renal = tested on: TK-10 renal
SNB-19 CNS = tested on: SNB-19 CNS
UO-31 renal = tested on: UO-31 renal
SN12C renal = tested on: SN12C renal
M14 melanoma = tested on: M14 melanoma
RXF-631 renal = tested on: RXF-631 renal
OVCAR-5 ovarian = tested on: OVCAR-5 ovarian
SK-MEL-2 melanoma = tested on: SK-MEL-2 melanoma
UACC-257 melanoma = tested on: UACC-257 melanoma
NCI-H23 lung = tested on: NCI-H23 lung

Measured: TGI

CC(C)(C)OC(=O)NC(Cc1ccc(O)cc1)C(=O)N1CCCC1C(=O)O (stereo not drawn) (Boc-Tyr-Pro-OH; configuration not given here)
> 100 µM: all assays above
